The record followed here is publication PMC6267478, “Heterologous Expression of a Thermostable β-1,3-Galactosidase and Its Potential in Synthesis of Galactooligosaccharides” (Marine Drugs, 2018).

The assay concerns T1, rMaBGA (recombinant β-1,3-galactosidase MaBGA).
T1 construct: full-length ORF in pET-22b(+) NdeI/XhoI, 6xHis tag (C-terminal by vector and primer design), E. coli BL21(DE3), IMAC + SEC, 66 kDa on SDS-PAGE; primers imply N-terminus MKLGVCYY and native C-terminus AIWQEI before LE-His tag
Description: ONP release at […] nm, nonlinear Michaelis-Menten fit. In kind it is biochemical, Marinomonas sp. BSi20414. Conditions: 50 mM PBS pH 7.0, 37 °C (general activity assay); 0.25-5 mM ONPG.

Each structure is given as a SMILES string.

A word on the Km: it is the concentration of substrate that gives half-maximal velocity. Take `O=[N+]([O-])c1ccccc1O[C@@H]1O[C@H](CO)[C@H](O)[C@H](O)[C@H]1O` [ONPG]: the Km came out at 6.85 mM.
